Results reported in patent EP2951180B1, “2,6,7,8 SUBSTITUTED PURINES AS HDM2 INHIBITORS” (Merck Sharp & Dohme Corp., priority 2013, dated 2014).

What follows are compounds tested against T1, HDM2 (Homo sapiens, UniProt Q00987) (assay: HDM2 FRET assay (inhibition of binding of FITC labeled p53-pocket peptide to HDM2)). Conditions: Table 6; read-out: FRET IC50.
T1 construct: Thioredoxin (N); made in house; host or cells: E. coli strain BL21(DE3)Rosetta
How it was run: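 Compounds were tested in 10-point serial dilution against 0.5 nM recombinant HDM2 binding 3 nM fluorescein-labeled p53-pocket peptide. Detection used 0.25 nM terbium cryptate anti-6xHis antibody in PBS buffer containing 0.01% BSA and 0.01% Tween-20.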

T1 sequence (Q00987 17-125): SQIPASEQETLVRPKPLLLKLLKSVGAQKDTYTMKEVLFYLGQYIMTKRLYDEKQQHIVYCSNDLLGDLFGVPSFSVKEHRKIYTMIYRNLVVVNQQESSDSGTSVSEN

Structure (SMILES) | IC50 [µM]
CCCCN(CCC)c1nc(C(=O)O)nc2nc(-c3cccc(C)c3)n(Cc3ccc(C(F)(F)F)cc3)c12 [Example 6.68, 6-[butyl(propyl)amino]-8-(3-methylphenyl)-7-[4-(trifluoromethyl)benzyl]-7H-purine-2-carboxylic acid] | 0.681
CCCCN(CC)c1nc(C(=O)O)nc2nc(-c3cccc(C)c3)n(Cc3ccc(C(F)(F)F)cc3)c12 [Example 6.69, 6-[butyl(ethyl)amino]-8-(3-methylphenyl)-7-[4-(trifluoromethyl)benzyl]-7H-purine-2-carboxylic acid] | 0.621
Cc1cccc(-c2nc3nc(C(=O)O)nc(N(C)CC(C)C)c3n2Cc2ccc(C(F)(F)F)cc2)c1 [Example 6.71, 6-[methyl(2-methylpropyl)amino]-8-(3-methylphenyl)-7-[4-(trifluoromethyl)benzyl]-7H-purine-2-carboxylic acid] | 0.94
Cc1cccc(-c2nc3nc(C(=O)O)nc(NC(C)C(C)C)c3n2Cc2ccc(C(F)(F)F)cc2)c1 (stereo not shown) [Example 6.73, 6-[(1,2-dimethylpropyl)amino]-8-(3-methylphenyl)-7-[4-(trifluoromethyl)benzyl]-7H-purine-2-carboxylic acid] | 0.437
Cc1cccc(-c2nc3nc(C(=O)O)nc(NC(C)C(C)(C)C)c3n2Cc2ccc(C(F)(F)F)cc2)c1 (stereo not shown) [Example 6.74, 8-(3-methylphenyl)-7-[4-(trifluoromethyl)benzyl]-6-[(1,2,2-trimethylpropyl)amino]-7H-purine-2-carboxylic acid] | 0.552
Cc1cccc(-c2nc3nc(C(=O)O)nc(NCC4CCC4)c3n2Cc2ccc(C(F)(F)F)cc2)c1 [Example 6.75, 6-[(cyclobutylmethyl)amino]-8-(3-methylphenyl)-7-[4-(trifluoromethyl)benzyl]-7H-purine-2-carboxylic acid] | 0.167
Cc1cccc(-c2nc3nc(C(=O)O)nc(N(C)CC(C)(C)C)c3n2Cc2ccc(C(F)(F)F)cc2)c1 [Example 6.82, 6-[(2,2-dimethylpropyl)(methyl)amino]-8-(3-methylphenyl)-7-[4-(trifluoromethyl)benzyl]-7H-purine-2-carboxylic acid] | 0.899
CCCCN(C)c1nc(C(=O)O)nc2nc(-c3cccc(C)c3)n(Cc3ccc(C(F)(F)F)cc3)c12 [Example 6.83, 6-[butyl(methyl)amino]-8-(3-methylphenyl)-7-[4-(trifluoromethyl)benzyl]-7H-purine-2-carboxylic acid] | 0.834
Cc1cccc(-c2nc3nc(C(=O)O)nc(N4CCCC4C(C)C)c3n2Cc2ccc(C(F)(F)F)cc2)c1 (stereo not shown) [Example 6.85, 6-[2-(1-methylethyl)pyrrolidin-1-yl]-8-(3-methylphenyl)-7-[4-(trifluoromethyl)benzy 1]-7H-purine-2-carboxylic acid] | 0.723
CCCC1CCCN1c1nc(C(=O)O)nc2nc(-c3cccc(C)c3)n(Cc3ccc(C(F)(F)F)cc3)c12 (stereo not shown) [Example 6.86, 8-(3-methylphenyl)-6-(2-propylpyrrolidin-1-yl)-7-[4-(trifluoromethyl)benzyl]-7H-purine-2-carboxylic acid] | 0.754
CCC(C)CN(C)c1nc(C(=O)O)nc2nc(-c3cccc(C)c3)n(Cc3ccc(C(F)(F)F)cc3)c12 (stereo not shown) [Example 6.89, 6-[methyl(2-methylbutyl)amino]-8-(3-methylphenyl)-7-[4-(trifluoromethyl)benzyl]-7H-purine-2-carboxylic acid] | 0.73
CCCCCN(C)c1nc(C(=O)O)nc2nc(-c3cccc(C)c3)n(Cc3ccc(C(F)(F)F)cc3)c12 [Example 6.91, 6-[methyl(pentyl)amino] -8-(3-methylphenyl)-7-[4-(trifluoromethyl)benzyl]-7H-purine-2-carboxylic acid] | 0.731
Cc1cccc(-c2nc3nc(C(=O)O)nc(N4CCCC4C4CCC4)c3n2Cc2ccc(C(F)(F)F)cc2)c1 (stereo not shown) [Example 6.92, 6-(2-cyclobutylpyrrolidin-1-yl)-8-(3-methylphenyl)-7-[4-(trifluoromethyl)benzyl]-7H-purine-2-carboxylic acid] | 0.352
Cc1cccc(-c2nc3nc(C(=O)O)nc(N4CCC4C4CCC4)c3n2Cc2ccc(C(F)(F)F)cc2)c1 (stereo not shown) [Example 6.93, 6-(2-cyclobutylazetidin-1-yl)-8-(3-methylphenyl)-7-[4-(trifluoromethyl)benzyl]-7H-purine-2-carboxylic acid] | 0.806
Cc1cccc(-c2nc3nc(C(=O)O)nc(N4CCCCC4C4CCC4)c3n2Cc2ccc(C(F)(F)F)cc2)c1 (stereo not shown) [Example 6.95, 6-(2-cyclobutylpiperidin-1-yl)-8-(3-methylphenyl)-7-[4-(trifluoromethyl)benzyl]-7H-purine-2-carboxylic acid] | 0.271

Same assay, conditions: read-out: inh. at 1000 nM (FRET)

Structure (SMILES) | inhibition at 1 µM [%]
Cc1cccc(-c2nc3nc(C(=O)O)nc(N(C)C4CCCC4)c3n2Cc2ccc(C(F)(F)F)cc2)c1 [Example 6.65, 6-[cyclopentyl(methyl)amino]-8-(3-methylphenyl)-7-[4-(trifluoromethyl)benzyl]-7H-purine-2-carboxylic acid] | 35
Cc1cccc(-c2nc3nc(C(=O)O)nc(N4Cc5ccccc5C4)c3n2Cc2ccc(C(F)(F)F)cc2)c1 [Example 6.66, 6-(1,3-dihydro-2H-isoindol-2-yl)-8-(3-methylphenyl)-7-[4-(trifluoromethyl)benzyl]-7H-purine-2-carboxylic acid] | 46
Cc1cccc(-c2nc3nc(C(=O)O)nc(N(C)Cc4ccccc4)c3n2Cc2ccc(C(F)(F)F)cc2)c1 [Example 6.67, 6-[benzyl(methyl)amino]-8-(3-methylphenyl)-7-[4-(trifluoromethyl)benzyl]-7H-purine-2-carboxylic acid] | 30
CCCN(CC)c1nc(C(=O)O)nc2nc(-c3cccc(C)c3)n(Cc3ccc(C(F)(F)F)cc3)c12 [Example 6.70, 6-[ethyl(propyl)amino]-8-(3-methylphenyl)-7-[4-(trifluoromethyl)benzyl]-7H-purine-2-carboxylic acid] | 39
Cc1cccc(-c2nc3nc(C(=O)O)nc(N(C)CC(C)C)c3n2Cc2ccc(C(F)(F)F)cc2)c1 [Example 6.72, 6-[methyl(2-methylpropyl)amino]-8-(3-methylphenyl)-7-[4-(trifluoromethyl)benzyl]-7H-purine-2-carboxylic acid] | 40
Cc1cccc(-c2nc3nc(C(=O)O)nc(N4CCCC4CC(C)C)c3n2Cc2ccc(C(F)(F)F)cc2)c1 (stereo not shown) [Example 6.76, 8-(3-methylphenyl)-6-[2-(2-methylpropyl)pyrrolidin-1-yl]-7-[4-(trifluoromethyl)benzyl]-7H-purine-2-carboxylic acid] | 32
Cc1cccc(-c2nc3nc(C(=O)O)nc(N(C)CCC(C)C)c3n2Cc2ccc(C(F)(F)F)cc2)c1 [Example 6.77, 6-[methyl(3-methylbutyl)amino]-8-(3-methylphenyl)-7-[4-(trifluoromethyl)benzyl]-7H-purine-2-carboxylic acid] | 36
CCC1CCCN1c1nc(C(=O)O)nc2nc(-c3cccc(C)c3)n(Cc3ccc(C(F)(F)F)cc3)c12 (stereo not shown) [Example 6.78, 6-(2-ethylpyrrolidin-1-yl)-8-(3-methylphenyl)-7-[4-(trifluoromethyl)benzyl]-7H-purine-2-carboxylic acid] | 33
CCCC(C)N(C)c1nc(C(=O)O)nc2nc(-c3cccc(C)c3)n(Cc3ccc(C(F)(F)F)cc3)c12 (stereo not shown) [Example 6.79, 6-[methyl(1-methylbutyl)amino]-8-(3-methylphenyl)-7-[4-(trifluoromethyl)benzyl]-7H-purine-2-carboxylic acid] | 43
Cc1cccc(-c2nc3nc(C(=O)O)nc(N4CCCC4C4CCCCC4)c3n2Cc2ccc(C(F)(F)F)cc2)c1 (stereo not shown) [Example 6.80, 6-(2-cyclohexylpyrrolidin-1-yl)-8-(3-methylphenyl)-7-[4-(trifluoromethyl)benzyl]-7H-purine-2-carboxylic acid] | 40
Cc1cccc(-c2nc3nc(C(=O)O)nc(N(C)C(C)C(C)C)c3n2Cc2ccc(C(F)(F)F)cc2)c1 (stereo not shown) [Example 6.81, 6-[(1,2-dimethylpropyl)(methyl)amino]-8-(3-methylphenyl)-7-[4-(trifluoromethyl)benzyl]-7H-purine-2-carboxylic acid] | 46
Cc1cccc(-c2nc3nc(C(=O)O)nc(N(C)C(C4CC4)C4CC4)c3n2Cc2ccc(C(F)(F)F)cc2)c1 [Example 6.84, 6-[(dicyclopropylmethyl)(methyl)amino]-8-(3-methylphenyl)-7-[4-(trifluoromethyl)benzyl]-7H-purine-2-carboxylic acid] | 46
Cc1cccc(-c2nc3nc(C(=O)O)nc(N4CCCC4C(C)(C)C)c3n2Cc2ccc(C(F)(F)F)cc2)c1 (stereo not shown) [Example 6.87, 6-(2-tert-butylpyrrolidin-1-yl)-8-(3-methylphenyl)-7-[4-(trifluoromethyl)benzyl]-7H-purine-2-carboxylic acid] | 43
Cc1cccc(-c2nc3nc(C(=O)O)nc(N(C)C(C)C4CC4)c3n2Cc2ccc(C(F)(F)F)cc2)c1 (stereo not shown) [Example 6.88, 6-[(1-cyclopropylethyl)(methyl)amino]-8-(3-methylphenyl)-7-[4-(trifluoromethyl)benzyl]-7H-purine-2-carboxylic acid] | 33
Cc1cccc(-c2nc3nc(C(=O)O)nc(N(C)CC4CC4(C)C)c3n2Cc2ccc(C(F)(F)F)cc2)c1 (stereo not shown) [Example 6.90, 6-{[(2,2-dimethylcyclopropyl)methyl](methyl)amino}-8-(3-methylphenyl)-7-[4-(trifluoromethyl)benzyl]-7H-purine-2-carboxylic acid] | 34
Cc1cccc(Nc2nc(C(=O)O)nc3nc(-c4cccc(C)c4)n(Cc4ccc(C(F)(F)F)cc4)c23)c1 [Example 6.94, 8-(3-methylphenyl)-6-[(3-methylphenyl)amino]-7-[4-(trifluoromethyl)benzyl]-7H-purine-2-carboxylic acid] | 32
